Target: bovine serum albumin (Bos taurus, UniProt P02769)
Experiment: Dialysis module, HF field effect in the frequency range 1 to 170 MHz on separation of phenylacetic acid (Embodiment 2)
Format: in vitro ADME
Details: BSA 60 mg/ml, toxin 1 mmol/l
Method: A dialysis module was set up for this purpose in that conventional hemofiltration capillaries were cast as loops using silicone into a syringe receiving neck. An aqueous albumin solution was introduced into the respective module in the presence of the uremic toxins phenylacetic acid, p-hydroxyhippuric acid and indoxyl sulfate. This solution was filtered with the dialysis module using a syringe pump for 10 min. […] The electromagnetic field is incremented by means of a high-frequency voltage source over a period of 10 minutes from […] in steps of 1 MHz. […] The effect of the HF field on the bond between the proteins and the uremic toxins was able to be evaluated by a comparison of the uremic toxin concentration in the resulting filtrates.
The HF field was varied in subbands of 10 MHz in the frequency range 1-170 MHz and was compared with a control experiment without an HF field.
The quantitative determination of the phenylacetic acid was performed using HPLC.
The results of the experiments are collected in FIG. 9. […] The effect was particularly pronounced at 54.6% in the subband from 110 to 120 MHz.

bovine serum albumin, sequence (P02769 25-607): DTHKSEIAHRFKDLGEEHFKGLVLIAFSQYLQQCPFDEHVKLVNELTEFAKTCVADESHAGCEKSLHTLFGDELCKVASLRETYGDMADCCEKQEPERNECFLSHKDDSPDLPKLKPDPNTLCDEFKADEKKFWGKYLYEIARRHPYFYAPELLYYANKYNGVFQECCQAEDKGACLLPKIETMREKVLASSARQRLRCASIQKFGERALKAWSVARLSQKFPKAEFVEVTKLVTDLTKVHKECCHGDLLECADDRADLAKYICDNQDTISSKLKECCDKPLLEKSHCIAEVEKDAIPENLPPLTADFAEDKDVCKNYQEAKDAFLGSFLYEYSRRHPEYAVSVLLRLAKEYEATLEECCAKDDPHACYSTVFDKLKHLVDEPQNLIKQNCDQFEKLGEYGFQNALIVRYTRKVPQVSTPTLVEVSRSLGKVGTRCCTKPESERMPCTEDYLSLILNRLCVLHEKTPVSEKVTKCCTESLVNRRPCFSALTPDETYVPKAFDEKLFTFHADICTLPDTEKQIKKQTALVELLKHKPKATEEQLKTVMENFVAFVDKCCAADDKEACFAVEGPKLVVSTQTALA

O=C(O)Cc1ccccc1 [phenylacetic acid]
increase of separation rate under the influence of the HF field (HF field 1-170 MHz in subbands of 10 MHz vs control without HF field): at least 45.3%
increase of separation rate under the influence of the HF field (subband from 110 to 120 MHz vs control without HF field): 54.6%

From US10525187B2, “Apparatus for removing protein-bound toxins from blood plasma” (Fresenius Medical Care Deutschland GmbH, priority 2012, dated 2020)
